Experiments:
Assay in all cases: relative viability (nuclei count vs DMSO), 5 days (fraction); higher = more cells survive
[1] = compound: Cc1nc(Nc2ncc(C(=O)Nc3c(C)cccc3Cl)s2)cc(N2CCN(CCO)CC2)n1 [Dasatinib] + O=C(c1cc(Cc2n[nH]c(=O)c3ccccc23)ccc1F)N1CCN(C(=O)C2CC2)CC1 [Olaparib] (partner 8 µM)
Procedure, shortened: (§1)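 One day after seeding in 1536-well plates, lung cancer cell lines were dosed by pin tool. Dosing was either single-drug or a fixed anchor-drug dose plus five library-drug doses (not always all listed) in √10 steps. After 5 days, nuclei were stained in one fix-and-stain step and counted on 4× images, and relative viability is the nuclei count of treated wells over that of vehicle wells, given as the median of duplicate plates.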

[2] = compound: Cc1ccc(C(=O)Nc2cccc(C(F)(F)F)c2)cc1Nc1cncc(C(N)=O)c1 [ALW-II-49-7] + N=C(N)NC(=N)NCCc1ccccc1 [Phenformin] (partner 250 µM)
Procedure, shortened: as §1

[3] = compound: Cc1ccc(C(=O)Nc2cccc(C(F)(F)F)c2)cc1Nc1cncc(C(N)=O)c1 [ALW-II-49-7] + O=C(CCCCCCC(=O)Nc1ccccc1)NO [Vorinostat] (partner 1 µM)
Procedure, shortened: as §1

[4] = compound: Cc1ccc(C(=O)Nc2cccc(C(F)(F)F)c2)cc1Nc1cncc(C(N)=O)c1 [ALW-II-49-7] + NC(=O)Nc1cc(-c2cccc(F)c2)sc1C(=O)N[C@H]1CCCNC1 [AZD7762] (partner 0.2 µM)
Procedure, shortened: as §1

Cell Line: NCI-H1299
- relative viability ([1]; first compound 0.005 µM): 0.959
- relative viability ([1]; first compound 0.01581 µM): 0.983
- relative viability ([1]; first compound 0.05 µM): 0.998
- relative viability ([1]; first compound 0.1581 µM): 0.639
- relative viability ([1]; first compound 0.5 µM): 0.297

Cell Line: NCI-H1563
- relative viability ([2]; first compound 0.08 µM): 0.65
- relative viability ([2]; first compound 0.253 µM): 0.71
- relative viability ([2]; first compound 0.8 µM): 0.67
- relative viability ([2]; first compound 2.53 µM): 0.683
- relative viability ([2]; first compound 8 µM): 0.606

Cell Line: NCI-H1623
- relative viability ([2]; first compound 0.08 µM): 0.566
- relative viability ([2]; first compound 0.253 µM): 0.504
- relative viability ([2]; first compound 0.8 µM): 0.574
- relative viability ([2]; first compound 2.53 µM): 0.565
- relative viability ([2]; first compound 8 µM): 0.564

Cell Line: NCI-H1648
- relative viability ([3]; first compound 0.08 µM): 0.346
- relative viability ([3]; first compound 0.253 µM): 0.298
- relative viability ([3]; first compound 0.8 µM): 0.287
- relative viability ([3]; first compound 2.53 µM): 0.327
- relative viability ([3]; first compound 8 µM): 0.425
- relative viability ([1]; first compound 0.005 µM): 0.73
- relative viability ([1]; first compound 0.01581 µM): 0.612
- relative viability ([1]; first compound 0.05 µM): 0.855
- relative viability ([1]; first compound 0.1581 µM): 0.314
- relative viability ([1]; first compound 0.5 µM): 0.221
- relative viability ([4]; first compound 0.08 µM): 0.62
- relative viability ([4]; first compound 0.253 µM): 0.697
- relative viability ([4]; first compound 0.8 µM): 0.74
- relative viability ([4]; first compound 2.53 µM): 0.678
- relative viability ([4]; first compound 8 µM): 0.618

Cell Line: NCI-H1650
- relative viability ([3]; first compound 0.08 µM): 0.518
- relative viability ([3]; first compound 0.253 µM): 0.656
- relative viability ([3]; first compound 0.8 µM): 0.563
- relative viability ([3]; first compound 2.53 µM): 0.524
- relative viability ([3]; first compound 8 µM): 0.576
- relative viability ([2]; first compound 0.08 µM): 0.447
- relative viability ([2]; first compound 0.253 µM): 0.465
- relative viability ([2]; first compound 0.8 µM): 0.427
- relative viability ([2]; first compound 2.53 µM): 0.492
- relative viability ([2]; first compound 8 µM): 0.476
- relative viability ([1]; first compound 0.005 µM): 0.741
- relative viability ([1]; first compound 0.01581 µM): 0.614
- relative viability ([1]; first compound 0.05 µM): 0.571
- relative viability ([1]; first compound 0.1581 µM): 0.442
- relative viability ([1]; first compound 0.5 µM): 0.282

Cell Line: NCI-H1703
- relative viability ([1]; first compound 0.005 µM): 0.287
- relative viability ([1]; first compound 0.01581 µM): 0.25
- relative viability ([1]; first compound 0.05 µM): 0.144
- relative viability ([1]; first compound 0.1581 µM): 0.147
- relative viability ([1]; first compound 0.5 µM): 0.148
- relative viability ([4]; first compound 0.08 µM): 0.124
- relative viability ([4]; first compound 0.253 µM): 0.132
- relative viability ([4]; first compound 0.8 µM): 0.116
- relative viability ([4]; first compound 8 µM): 0.127

Cell Line: NCI-H1792
- relative viability ([2]; first compound 0.8 µM): 0.228
- relative viability ([2]; first compound 2.53 µM): 0.147
- relative viability ([2]; first compound 8 µM): 0.258
- relative viability ([1]; first compound 0.005 µM): 0.385
- relative viability ([1]; first compound 0.01581 µM): 0.348
- relative viability ([1]; first compound 0.05 µM): 0.411
- relative viability ([1]; first compound 0.1581 µM): 0.2
- relative viability ([1]; first compound 0.5 µM): 0.0885
- relative viability ([4]; first compound 0.08 µM): 0.836
- relative viability ([4]; first compound 0.253 µM): 0.621
- relative viability ([4]; first compound 0.8 µM): 0.591
- relative viability ([4]; first compound 2.53 µM): 0.745
- relative viability ([4]; first compound 8 µM): 0.454

Cell Line: NCI-H2009
- relative viability ([3]; first compound 0.08 µM): 0.749
- relative viability ([3]; first compound 0.253 µM): 0.838
- relative viability ([3]; first compound 0.8 µM): 0.731
- relative viability ([3]; first compound 2.53 µM): 0.695
- relative viability ([3]; first compound 8 µM): 0.657
- relative viability ([2]; first compound 0.08 µM): 0.463
- relative viability ([2]; first compound 0.253 µM): 0.49
- relative viability ([2]; first compound 0.8 µM): 0.444
- relative viability ([2]; first compound 2.53 µM): 0.334
- relative viability ([2]; first compound 8 µM): 0.283
- relative viability ([1]; first compound 0.005 µM): 0.715
- relative viability ([1]; first compound 0.01581 µM): 0.731
- relative viability ([1]; first compound 0.05 µM): 0.772
- relative viability ([1]; first compound 0.1581 µM): 0.556
- relative viability ([1]; first compound 0.5 µM): 0.127

Cell Line: NCI-H2023
- relative viability ([3]; first compound 0.08 µM): 0.683
- relative viability ([3]; first compound 0.253 µM): 0.688
- relative viability ([3]; first compound 0.8 µM): 0.434
- relative viability ([3]; first compound 2.53 µM): 0.64
- relative viability ([3]; first compound 8 µM): 0.625
- relative viability ([2]; first compound 0.08 µM): 0.384
- relative viability ([2]; first compound 0.253 µM): 0.467
- relative viability ([2]; first compound 0.8 µM): 0.403
- relative viability ([2]; first compound 2.53 µM): 0.395
- relative viability ([2]; first compound 8 µM): 0.319
- relative viability ([1]; first compound 0.005 µM): 0.43
- relative viability ([1]; first compound 0.01581 µM): 0.456
- relative viability ([1]; first compound 0.05 µM): 0.377
- relative viability ([1]; first compound 0.1581 µM): 0.378
- relative viability ([1]; first compound 0.5 µM): 0.379

Cell Line: NCI-H2228
- relative viability ([3]; first compound 0.08 µM): 0.534
- relative viability ([3]; first compound 0.253 µM): 0.414
- relative viability ([3]; first compound 0.8 µM): 0.513
- relative viability ([3]; first compound 2.53 µM): 0.674
- relative viability ([3]; first compound 8 µM): 0.49
- relative viability ([2]; first compound 0.08 µM): 0.286
- relative viability ([2]; first compound 0.253 µM): 0.215
- relative viability ([2]; first compound 0.8 µM): 0.328
- relative viability ([2]; first compound 2.53 µM): 0.251
- relative viability ([2]; first compound 8 µM): 0.334
- relative viability ([1]; first compound 0.005 µM): 0.847
- relative viability ([1]; first compound 0.01581 µM): 0.647
- relative viability ([1]; first compound 0.05 µM): 0.714
- relative viability ([1]; first compound 0.1581 µM): 0.464
- relative viability ([1]; first compound 0.5 µM): 0.273

Cell Line: SK-LU-1
- relative viability ([3]; first compound 0.08 µM): 0.754
- relative viability ([3]; first compound 0.253 µM): 0.64
- relative viability ([3]; first compound 0.8 µM): 0.551
- relative viability ([3]; first compound 2.53 µM): 0.628
- relative viability ([3]; first compound 8 µM): 0.493
- relative viability ([2]; first compound 0.08 µM): 0.445
- relative viability ([2]; first compound 0.253 µM): 0.583
- relative viability ([2]; first compound 0.8 µM): 0.519
- relative viability ([2]; first compound 2.53 µM): 0.445
- relative viability ([2]; first compound 8 µM): 0.435
- relative viability ([1]; first compound 0.005 µM): 0.471
- relative viability ([1]; first compound 0.01581 µM): 0.317
- relative viability ([1]; first compound 0.05 µM): 0.323
- relative viability ([1]; first compound 0.1581 µM): 0.188
- relative viability ([1]; first compound 0.5 µM): 0.167

Cell Line: SK-MES-1
- relative viability ([3]; first compound 0.08 µM): 1.14
- relative viability ([3]; first compound 0.253 µM): 1.16
- relative viability ([3]; first compound 0.8 µM): 1.05
- relative viability ([3]; first compound 2.53 µM): 1.04
- relative viability ([3]; first compound 8 µM): 0.938
- relative viability ([2]; first compound 0.08 µM): 0.644
- relative viability ([2]; first compound 0.253 µM): 0.637
- relative viability ([2]; first compound 0.8 µM): 0.625
- relative viability ([2]; first compound 2.53 µM): 0.577
- relative viability ([2]; first compound 8 µM): 0.512
- relative viability ([1]; first compound 0.005 µM): 0.766
- relative viability ([1]; first compound 0.01581 µM): 0.794
- relative viability ([1]; first compound 0.05 µM): 0.56
- relative viability ([1]; first compound 0.1581 µM): 0.214
- relative viability ([1]; first compound 0.5 µM): 0.151

Cell Line: SW 1573
- relative viability ([3]; first compound 0.08 µM): 0.612
- relative viability ([3]; first compound 0.253 µM): 0.663
- relative viability ([3]; first compound 0.8 µM): 0.652
- relative viability ([3]; first compound 2.53 µM): 0.648
- relative viability ([3]; first compound 8 µM): 0.567
- relative viability ([2]; first compound 0.08 µM): 0.347
- relative viability ([2]; first compound 0.253 µM): 0.385
- relative viability ([2]; first compound 0.8 µM): 0.374
- relative viability ([2]; first compound 2.53 µM): 0.479
- relative viability ([2]; first compound 8 µM): 0.398
- relative viability ([1]; first compound 0.005 µM): 0.424
- relative viability ([1]; first compound 0.01581 µM): 0.378
- relative viability ([1]; first compound 0.05 µM): 0.347
- relative viability ([1]; first compound 0.1581 µM): 0.253
- relative viability ([1]; first compound 0.5 µM): 0.327
